The values that follow come from publication PMC5438364, “A broad-spectrum bactericidal lipopeptide with anti-biofilm properties” (Scientific Reports, 2017).

Like-named read-outs stand apart in the source and are kept apart here. Where a SMILES comes first, the peptide text is derived from it. [ ]: non-standard residue; d: D form. The star is where a group is joined. Palmitoyl = CCCCCCCCCCCCCCCC(=O)*; Lauroyl = CCCCCCCCCCCC(=O)*; 12Ado = NCCCCCCCCCCCC(=O)O; Decanoyl = CCCCCCCCCC(=O)*; Octanoyl = CCCCCCCC(=O)* Where only a bound is given, the exact number is not on record here.

One data set concerns bacteria. To be noted: cited from earlier work. The text has this: A variety of strategies were proposed to generate chemical mimics of AMPs to alleviate complications associated with peptide drugs, [31]. AMP-mimics may also be beneficial in helping to improve understanding the complex molecular basis for AMPs function(s) owing to their relative molecular/structural simplicity. Namely, while charge and hydrophobicity represent most critical factors influencing AMP properties, it is often challenging to identify the respective optimal proportions for controlling potency or selectivity. For instance, excess hydrophobicity might promote self-assembly in aque ...

Another data set has as its system GPB and GNB. Briefly: Effect observed at low concentrations, analog series. Particulars: summary of this and previous studies. The class given is cell-based. Here is the method: Table 2 Modulating biophysical properties of a core sequence by conjugating an N-terminal acyl. | column: Effect observed at low concentrations (<3 µM)
A short description of data set [1]: Hydrophobicity by C18 RP-HPLC elution. Particulars: chromatographic, RP-HPLC C18 (Vydac), flow 2 ml/min, linear acetonitrile gradient 1%/min. Type of data set: physicochemical. Here is the method:
OAKs were synthesized in-house (433 A Peptide Synthesizer; Applied Biosystems, Foster City, CA, USA) by the solid-phase method using 9-fluorenylmethyloxycarbonyl (Fmoc) active-ester chemistry on 4-methylbenzhydrylamine (MBHA) resin. OAKs were then deprotected and cleaved from the resin using trifluoroacetic acid:H2O (95:5) and purified to >95% chromatographic homogeneity by reverse phase high performance liquid chromatography (RP-HPLC) using C18 column (Vydac), a flow rate of 2 ml/min and a linear acetonitrile gradient of 1%/min (Alliance; Waters, Milford, MA, USA). Peaks identity was verified by mass-spectrometry (Xevo G2 Tof; Waters, Milford, MA, USA). Purified OAKs were then lyophilized and kept as dry powder at −20 °C.

In another data set the test system is S. mutans. Briefly: microbe, parasite or virus in culture. Type of data set: cell-based, Streptococcus mutans. Here is the method: Staphylococci, Bacilli, Escherichia, Pseudomonas, Acinetobacter, Salmonella and Klebsiella species were grown in Luria Bertani broth (LB; 5 gr/l NaCl, 5 gr/l yeast extract, 10 gr/l tryptone). Enterococci and E. coli ML-35p were grown in Tryptic Soy Broth (TSB). Listeria and Streptococci were grown in Brain Heart Infusion (BHI). All bacteria were grown over-night at 37 °C with shaking. S. mutans 35668 plated on BHI agar for enumeration was grown for 48 hr. S. mutans UA159 was grown in 5% CO2 enriched atmosphere. Fusobacterium and Porphyromonas were grown in Wilkins-Chalgren growth medium and an anaerobic atmosphere.
Minimal inhibitory concentration (MIC) was determined using the microdilution assay. Mid-log-phase bacteria at 5 × 10^5 CFU/ml were incubated in a 96-well plate with serial two-fold dilutions of the tested compound for 18–24 hr at 37 °C (final volume of 200 µl). O.D. at 620 nm was measured (Synergy HT, BioTek Instruments, Winooski, VT, USA), and the MIC was determined as the lowest concentration for which no increase in O.D. was detected.

The test system of a further data set is E. coli. To be noted: microdilution; cited from earlier work. The text has this:
Table 2 Modulating biophysical properties of a core sequence by conjugating an N-terminal acyl. | column: MIC^c (µM) / E.c.

For data set [2] the following is noted: under similar conditions; increased with increasing hydrophobicity; cited from earlier work.
Data set [3] deals with S. mutans ATCC 35668 biofilm. The experiment in a line: Anti-biofilm activity on pre-formed biofilm. Type of data set: cell-based, Streptococcus mutans. To be noted: ≥0.5 mM, within one hour of exposure, inoculum 10^9 CFU/ml. Here is the method: Anti-biofilm activity was evaluated against established biofilms in 96-well plates as follows. 200 µl of mid-log-phase S. mutans 35668 at 5 × 10^5 CFU/ml in BHI containing 2% sucrose were placed in each well, and plates were incubated for 24 hr at 37 °C without shaking. Unattached cells were removed by decanting the plates and biofilms were washed three times with milliQ water. Solutions of the tested compounds were placed on the biofilms for up to 3 hr at 37 °C without shaking. Plates were decanted in 0.5 hr intervals and biofilms were washed three times with milliQ water to remove any compound residues. Biofilms were scraped from the bottom of the wells, suspended in BHI and sonicated for 5 min in a sonication bath, subjected to serial 10-fold dilutions in saline and plated on BHI agar for enumeration.

Another data set concerns S. mutans ATCC 35668. Briefly: Bactericidal kinetics (time-kill). To be noted: time-kill kinetics in BHI. The class given is cell-based, Streptococcus mutans. Here is the method: Bactericidal kinetics was assessed by incubating 5 × 10^5 CFU/ml of mid-log-phase bacteria with the OAK for 3 hr at 37 °C with shaking. Aliquots were taken at t = 0, 0.5, 1, 2 and 3 hr, subjected to serial 10-fold dilutions in saline (NaCl = 0.85%) and plated for enumeration after 24–48 hr incubation at 37 °C.

With `CCCCCCCC(=O)N[C@@H](CCCCN)C(=O)N[C@@H](CCCCN)C(=O)NCCCCCCCCCCCC(=O)N[C@@H](CCCCN)C(N)=O` [C8KKc12K] (Octanoyl-KK[12Ado]K-NH2), in the data set on bacteria, the antibacterial activity entry is “essentially inactive”. Besides, in the data set with GPB and GNB, the “Effect observed at low concentrations (<3 µM)” value (“Effect observed” below) was “Weak perturbations of GNB outer membrane (normal growth)”. Also, in data set [1], the “H, hydrophobicity, defined as % acetonitrile eluent in C18 HPLC column” value worked out at 41%. Also, in the data set on S. mutans, the MIC stood at 50 µM. The “MIC E.c.” value in the data set on E. coli was >50[40] µM. Besides, the “binding affinity to LPS” value in data set [2] was “lower than that of C14KKc12K”.
For `CCCCCCCCCC(=O)N[C@@H](CCCCN)C(=O)N[C@@H](CCCCN)C(=O)NCCCCCCCCCCCC(=O)N[C@@H](CCCCN)C(N)=O` [C10KKc12K] (Decanoyl-KK[12Ado]K-NH2), the antibacterial activity entry in the data set on bacteria is “essentially inactive”. In the data set with GPB and GNB, the “Effect observed” value was “Weak growth inhibition of some GPB and transient membrane damages including partial depolarization of CM (slight delay in GNB growth)”. Besides, the “H, hydrophobicity, defined as % acetonitrile eluent in C18 HPLC column” value in data set [1] was 46%. In the data set on S. mutans, the MIC stood at 6.25 µM. The “MIC E.c.” value with E. coli was >50[40] µM. In addition, the “binding affinity to LPS” value in data set [2] is “lower than that of C14KKc12K”.
For `CCCCCCCCCCCC(=O)N[C@@H](CCCCN)C(=O)N[C@@H](CCCCN)C(=O)NCCCCCCCCCCCC(=O)N[C@@H](CCCCN)C(N)=O` [C12KKc12K] (Lauroyl-KK[12Ado]K-NH2), the “Effect observed” value with GPB and GNB is on record as “Impairing membrane damages leading to a bacteriostatic mode of action in GPB; OM permeabilization & delayed growth in GNB”. In data set [1], the “H, hydrophobicity, defined as % acetonitrile eluent in C18 HPLC column” value is 51%. The MIC in the data set on S. mutans is on record as 1.56 µM. Further, in the data set on E. coli, the “MIC E.c.” value is 16[40] µM. The “binding affinity to LPS” value in data set [2] is given as “lower than that of C14KKc12K”.
For `CCCCCCCCCCCCCCCC(=O)N[C@@H](CCCCN)C(=O)N[C@@H](CCCCN)C(=O)NCCCCCCCCCCCC(=O)N[C@@H](CCCCN)C(N)=O` [C16KKc12K] (Palmitoyl-KK[12Ado]K-NH2), the “Effect observed” value in the data set on GPB and GNB is listed as “Trend reversal (reduced potency) due to excess hydrophobicity as self-assembly approaches the critical aggregation concentration”. For the same compound, the “H, hydrophobicity, defined as % acetonitrile eluent in C18 HPLC column” value in data set [1] was found to be 62%. Further, the MIC with S. mutans is reported as 1.56 µM. In addition, in the data set on E. coli, the “MIC E.c.” value was 25[24] µM.
With `[H]/N=C(\N/C(=N/[H])NCCCCCCNC(=N)NC(=N)Nc1ccc(Cl)cc1)Nc1ccc(Cl)cc1` [CHX, chlorhexidine, reference compound], the “killing of the initial inoculum in preformed biofilm” value in data set [3] was greater than 99%. Further, the “higher potency (MIC) than C14KKc12K” value in the data set with S. mutans (MIC of CHX versus C14KKc12K on S. mutans) is roughly 3 fold. For the same compound, in the data set with S. mutans (Streptococcus mutans, microdilution, BHI, 18–24 hr, 37 °C), the MIC amounted to 0.3 µM. The “multiples of MIC at which bactericidal” value in the data set with S. mutans ATCC 35668 was 40 multiples of its MIC.
As to `NCCCC[C@H](NC(=O)CCCCCCCCCCCNC(=O)[C@H](CCCCN)NC(=O)[C@@H](N)CCCCN)C(N)=O` [H-KKc12K-NH2] (H-KK[12Ado]K-NH2), in the data set on bacteria, the antibacterial activity entry is “inactive”. In addition, the “Effect observed” value in the data set with GPB and GNB is “Not observed (normal growth)”. The “H, hydrophobicity, defined as % acetonitrile eluent in C18 HPLC column” value in data set [1] came out at 27%. Moreover, in the data set on S. mutans, the MIC is on record as greater than 50 µM. The “MIC E.c.” value in the data set on E. coli is >50[40] µM.
